Measurements taken from patent US11034650B2, “Compounds useful for treating a Mannheimia haemolytica or Histophilus somni infection” (Intervet Inc., priority 2016, dated 2021).
≈ marks a conversion by molar mass, not a printed value.

What was measured:
Type in all cases: cell-based
[1] = tested on: Mannheimia haemolytica MH 13093 (XB0472-6014.1, BRD field isolate); experiment: MIC, broth-microdilution (CLSI VET01-A4), strain MH 13093; conditions: Mannheimia haemolytica strain MH 13093, broth-microdilution; unit assumed
Method: (§1) For example, representative compounds were tested against ***, Mannheimia haemolytica and Pasteurella multocida, using the conventional broth-dilution assay.
(§2) The Minimum inhibitory concentrations (MIC) of compounds according to the invention for a number of veterinary bacterial pathogens were determined by the broth-microdilution method according to CLSI document VET01-A4.
(§3) Microdilution trays containing a doubling dilution series of the test compound were used for the tests. The MIC results were interpreted according to the CLSI documents VET01-S3. The lowest concentration of compound at which no visible growth (i.e. no turbidity) detected by the unaided eye was recorded as the MIC.

[2] = tested on: Pasteurella multocida PM 12080 (IV102277-0093, BRD field isolate); experiment: MIC, broth-microdilution (CLSI VET01-A4), strain PM 12080; conditions: Pasteurella multocida strain PM 12080, broth-microdilution; unit assumed
Method: as §1, §2, §3

[3] = tested on: Mannheimia haemolytica MH 6374 (ATCC 33396, reference strain); experiment: MIC, broth-microdilution (CLSI VET01-A4), strain MH 6374; conditions: Mannheimia haemolytica strain MH 6374, broth-microdilution; unit assumed
Method: as §1, §2, §3

[4] = tested on: Mannheimia haemolytica MH 13065 (XB0446-6003.9, BRD field isolate); experiment: MIC, broth-microdilution (CLSI VET01-A4), strain MH 13065; conditions: Mannheimia haemolytica strain MH 13065, broth-microdilution; unit assumed
Method: as §1, §2, §3

[5] = tested on: Pasteurella multocida PM 6267 (P 2225 (L386), reference strain, mouse infection strain); experiment: MIC, broth-microdilution (CLSI VET01-A4), strain PM 6267; conditions: Pasteurella multocida strain PM 6267, broth-microdilution; unit assumed
Method: as §1, §2, §3

[6] = tested on: Pasteurella multocida PM 10775 (080130003051, BRD field isolate); experiment: MIC, broth-microdilution (CLSI VET01-A4), strain PM 10775; conditions: Pasteurella multocida strain PM 10775, broth-microdilution; unit assumed
Method: as §1, §2, §3

[7] = tested on: Mannheimia haemolytica MH 6357 (M7/2, reference strain, cattle infection strain); experiment: MIC, broth-microdilution (CLSI VET01-A4), strain MH 6357; conditions: Mannheimia haemolytica strain MH 6357, broth-microdilution; unit assumed
Method: as §1, §2, §3

[8] = tested on: Mannheimia haemolytica MH 12587 (1071, BRD field isolate, macrolide-resistance: erm+, E+); experiment: MIC, broth-microdilution (CLSI VET01-A4), strain MH 12587; conditions: Mannheimia haemolytica strain MH 12587, broth-microdilution; unit assumed
Method: as §1, §2, §3

[9] = tested on: Mannheimia haemolytica MH 10720 (154, BRD field isolate); experiment: MIC, broth-microdilution (CLSI VET01-A4), strain MH 10720; conditions: Mannheimia haemolytica strain MH 10720, broth-microdilution; unit assumed
Method: as §1, §2, §3

MIC PM 12080 [2] [mg/L] | MIC PM 6267 [5] [mg/L] | MIC PM 10775 [6] [mg/L] | SMILES | MIC MH 13093 [1] [mg/L] | MIC MH 6374 [3] [mg/L] | MIC MH 13065 [4] [mg/L] | MIC MH 6357 [7] [mg/L] | MIC MH 12587 [8] [mg/L] | MIC MH 10720 [9] [mg/L]
1.6 (≈ 3.93 µM) | ≤ 0.1 | ≤ 0.1 | CC(C)NCc1ccc(C#Cc2ccc(C(=O)N[C@H](C(=O)NO)C(C)C)cc2)cc1 [Compound 93] | 12.5 (≈ 30.7 µM) | 6.3 (≈ 15.5 µM) | 6.3 (≈ 15.5 µM) | 6.3 (≈ 15.5 µM) | 12.5 (≈ 30.7 µM) | 3.1 (≈ 7.61 µM)
1.6 (≈ 4.07 µM) | 0.4 (≈ 1.02 µM) | ≤ 0.1 | C=CCNCc1ccc(C#Cc2ccc(C(=O)N[C@@H](CO)C(=O)NO)cc2)cc1 [Compound 73] | 3.1 (≈ 7.88 µM) | 3.1 (≈ 7.88 µM) | 3.1 (≈ 7.88 µM) | 3.1 (≈ 7.88 µM) | 6.3 (≈ 16 µM) | 3.1 (≈ 7.88 µM)
0.2 (≈ 0.477 µM) | ≤ 0.1 | ≤ 0.1 | CC[C@H](C)[C@H](NC(=O)c1ccc(C#Cc2ccc(CNC3CC3)cc2)cc1)C(=O)NO [Compound 112] | 0.4 (≈ 0.953 µM) | 0.4 (≈ 0.953 µM) | 0.4 (≈ 0.953 µM) | 1.6 (≈ 3.81 µM) | 0.8 (≈ 1.91 µM) | ≤ 0.1
1.6 (≈ 3.2 µM) | 0.8 (≈ 1.6 µM) | ≤ 0.1 | CC[C@H](C)[C@H](NC(=O)c1ccc(C#Cc2ccc(CNCc3ccc(OC)cc3)cc2)cc1)C(=O)NO [Compound 129] | 3.1 (≈ 6.2 µM) | 1.6 (≈ 3.2 µM) | 1.6 (≈ 3.2 µM) | 1.6 (≈ 3.2 µM) | 3.1 (≈ 6.2 µM) | 0.4 (≈ 0.801 µM)
0.2 (≈ 0.438 µM) | ≤ 0.1 | ≤ 0.1 | CC(C)[C@H](NC(=O)c1ccc(C#Cc2ccc(CNCc3ccncc3)cc2)cc1)C(=O)NO [Compound 110] | 0.4 (≈ 0.876 µM) | 0.4 (≈ 0.876 µM) | 0.4 (≈ 0.876 µM) | 1.6 (≈ 3.5 µM) | 0.8 (≈ 1.75 µM) | ≤ 0.1
0.8 (≈ 1.9 µM) | 0.2 (≈ 0.474 µM) | ≤ 0.1 | CCN(CC)Cc1ccc(C#Cc2ccc(C(=O)N[C@H](C(=O)NO)C(C)C)cc2)cc1 [Compound 97] | 12.5 (≈ 29.7 µM) | 12.5 (≈ 29.7 µM) | 12.5 (≈ 29.7 µM) | 12.5 (≈ 29.7 µM) | 12.5 (≈ 29.7 µM) | 3.1 (≈ 7.35 µM)
1.6 (≈ 3.21 µM) | 0.4 (≈ 0.802 µM) | ≤ 0.1 | CC(C)[C@H](NC(=O)c1ccc(C#Cc2ccc(CNCc3ccc(N(C)C)cc3)cc2)cc1)C(=O)NO [Compound 108] | 3.1 (≈ 6.22 µM) | 1.6 (≈ 3.21 µM) | 1.6 (≈ 3.21 µM) | 3.1 (≈ 6.22 µM) | 3.1 (≈ 6.22 µM) | 1.6 (≈ 3.21 µM)
6.3 (≈ 13.8 µM) | 3.1 (≈ 6.8 µM) | 0.8 (≈ 1.76 µM) | CC(C)[C@H](NC(=O)c1ccc(C#Cc2cccc(CNCc3ccccc3)c2)cc1)C(=O)NO [Compound 40] | 6.3 (≈ 13.8 µM) | 3.1 (≈ 6.8 µM) | 6.3 (≈ 13.8 µM) | 6.3 (≈ 13.8 µM) | 12.5 (≈ 27.4 µM) | 6.3 (≈ 13.8 µM)
1.6 (≈ 3.35 µM) | 0.2 (≈ 0.418 µM) | ≤ 0.1 | O=C(N[C@@H](CO)C(=O)NO)c1ccc(C#Cc2ccc(CNCc3ccc(Cl)cc3)cc2)cc1 [Compound 87] | 3.1 (≈ 6.49 µM) | 0.8 (≈ 1.67 µM) | 3.1 (≈ 6.49 µM) | 3.1 (≈ 6.49 µM) | 6.3 (≈ 13.2 µM) | 1.6 (≈ 3.35 µM)
0.8 (≈ 1.75 µM) | ≤ 0.1 | ≤ 0.1 | CN(Cc1ccccc1)Cc1ccc(C#Cc2ccc(C(=O)N[C@@H](CO)C(=O)NO)cc2)cc1 [Compound 86] | 3.1 (≈ 6.78 µM) | 0.8 (≈ 1.75 µM) | 1.6 (≈ 3.5 µM) | 1.6 (≈ 3.5 µM) | 3.1 (≈ 6.78 µM) | 0.4 (≈ 0.874 µM)
6.3 (≈ 13.8 µM) | 1.6 (≈ 3.5 µM) | 0.2 (≈ 0.438 µM) | CC(C)[C@H](NC(=O)c1ccc(C#Cc2cccc(CNCc3ccncc3)c2)cc1)C(=O)NO [Compound 46] | 6.3 (≈ 13.8 µM) | 6.3 (≈ 13.8 µM) | 6.3 (≈ 13.8 µM) | 6.3 (≈ 13.8 µM) | 12.5 (≈ 27.4 µM) | 1.6 (≈ 3.5 µM)
≤ 0.1 | 0.4 (≈ 0.888 µM) | – | CC(C)(C(NC(=O)c1ccc(C#Cc2ccc(CNC3CC3)cc2)cc1)C(=O)NO)[N+](=O)[O-] (racemic) [Compound 218] | 0.4 (≈ 0.888 µM) | 0.4 (≈ 0.888 µM) | 0.4 (≈ 0.888 µM) | 0.4 (≈ 0.888 µM) | 0.8 (≈ 1.78 µM) | ≤ 0.1
